The values below come from paper PMC6458995, “MAP4K4 Inhibition Promotes Survival of Human Stem Cell-Derived Cardiomyocytes and Reduces Infarct Size In Vivo” (Cell Stem Cell, 2019).

Holding throughout (experiment): Dundee kinase panel
What all share (assay type): biochemical
Details in all cases: for remaining activity at 1 µM: read-out: residual activity

The target of one test is T1, CDK9-Cyclin T1 (Homo sapiens, UniProt P50750).
T1 construct: lines 1-140) and Reaction Biology
The procedure:
(§1) Compounds were screened at 1 μM. For key hits, pIC50 values were then determined by HTRF as above. […] Stability in mouse and human liver microsomes was determined by Cyprotex.

A further test addresses T2, CK2 (Homo sapiens, UniProt P68400).
T2 construct: lines 1-140) and Reaction Biology
The procedure: as §1

Another test deals with T3, EPH-B2 (Homo sapiens, UniProt P29323).
T3 construct: lines 1-140) and Reaction Biology
T3 sequence (P29323 19-1055): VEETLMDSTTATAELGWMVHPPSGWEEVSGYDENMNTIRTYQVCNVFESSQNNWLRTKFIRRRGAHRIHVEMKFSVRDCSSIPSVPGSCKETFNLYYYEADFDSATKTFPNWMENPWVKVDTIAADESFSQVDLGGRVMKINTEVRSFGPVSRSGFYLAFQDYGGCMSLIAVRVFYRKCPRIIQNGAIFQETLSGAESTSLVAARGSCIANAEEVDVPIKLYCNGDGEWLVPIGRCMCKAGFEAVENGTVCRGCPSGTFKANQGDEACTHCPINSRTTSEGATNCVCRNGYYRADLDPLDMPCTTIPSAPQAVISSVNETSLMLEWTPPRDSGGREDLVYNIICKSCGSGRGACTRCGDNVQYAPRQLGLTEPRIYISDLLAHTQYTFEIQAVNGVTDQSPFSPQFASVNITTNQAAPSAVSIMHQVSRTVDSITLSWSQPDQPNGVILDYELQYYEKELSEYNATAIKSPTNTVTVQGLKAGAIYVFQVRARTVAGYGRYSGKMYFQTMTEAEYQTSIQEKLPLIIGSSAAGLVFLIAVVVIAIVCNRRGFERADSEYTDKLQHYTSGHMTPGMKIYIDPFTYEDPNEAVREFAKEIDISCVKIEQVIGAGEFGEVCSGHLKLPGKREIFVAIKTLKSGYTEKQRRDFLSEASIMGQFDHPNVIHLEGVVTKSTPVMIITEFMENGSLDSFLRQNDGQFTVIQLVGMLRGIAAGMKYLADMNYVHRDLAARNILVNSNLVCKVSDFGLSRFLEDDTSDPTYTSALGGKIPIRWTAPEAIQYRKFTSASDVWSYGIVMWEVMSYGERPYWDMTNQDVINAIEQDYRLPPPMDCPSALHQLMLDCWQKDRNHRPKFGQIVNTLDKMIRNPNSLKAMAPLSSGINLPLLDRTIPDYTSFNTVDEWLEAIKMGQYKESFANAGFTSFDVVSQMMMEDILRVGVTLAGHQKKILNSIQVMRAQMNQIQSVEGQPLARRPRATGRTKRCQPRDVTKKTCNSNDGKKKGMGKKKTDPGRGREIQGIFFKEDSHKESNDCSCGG
How it is done:
as §1

Another test addresses T4, ERK1 (Homo sapiens, UniProt P27361).
T4 construct: lines 1-140) and Reaction Biology
How it is done:
as §1

A further test addresses T5, IRR (Homo sapiens, UniProt P14616).
T5 construct: lines 1-140) and Reaction Biology
The procedure:
as §1

The target of another test is T6, JNK1 (Homo sapiens, UniProt P45983).
T6 construct: lines 1-140) and Reaction Biology
The procedure: as §1

Another test concerns the target T7, MELK (Homo sapiens, UniProt Q14680).
T7 construct: lines 1-140) and Reaction Biology
How it is done: as §1

Another test has as its target T8, MKK2 (Homo sapiens, UniProt P36507).
T8 construct: lines 1-140) and Reaction Biology
The procedure:
as §1

The next test addresses T9, MKK6 (Homo sapiens, UniProt P52564).
T9 construct: lines 1-140) and Reaction Biology
T9 sequence (P52564 1-334): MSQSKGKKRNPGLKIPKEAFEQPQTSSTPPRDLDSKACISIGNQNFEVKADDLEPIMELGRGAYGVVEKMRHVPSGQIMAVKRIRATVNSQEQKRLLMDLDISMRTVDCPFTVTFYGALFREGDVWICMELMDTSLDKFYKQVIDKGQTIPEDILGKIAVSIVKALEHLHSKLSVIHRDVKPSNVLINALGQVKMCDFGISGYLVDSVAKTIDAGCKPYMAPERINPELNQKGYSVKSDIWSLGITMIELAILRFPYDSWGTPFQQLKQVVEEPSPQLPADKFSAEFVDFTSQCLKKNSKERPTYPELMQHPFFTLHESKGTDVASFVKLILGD
How it is done:
as §1

For another test, the target named is T10, NEK6 (Homo sapiens, UniProt Q9HC98).
T10 construct: lines 1-140) and Reaction Biology
The procedure:
as §1

Another test has as its target T11, PDK1 (Homo sapiens, UniProt O15530).
T11 construct: lines 1-140) and Reaction Biology
T11 sequence (O15530 1-556): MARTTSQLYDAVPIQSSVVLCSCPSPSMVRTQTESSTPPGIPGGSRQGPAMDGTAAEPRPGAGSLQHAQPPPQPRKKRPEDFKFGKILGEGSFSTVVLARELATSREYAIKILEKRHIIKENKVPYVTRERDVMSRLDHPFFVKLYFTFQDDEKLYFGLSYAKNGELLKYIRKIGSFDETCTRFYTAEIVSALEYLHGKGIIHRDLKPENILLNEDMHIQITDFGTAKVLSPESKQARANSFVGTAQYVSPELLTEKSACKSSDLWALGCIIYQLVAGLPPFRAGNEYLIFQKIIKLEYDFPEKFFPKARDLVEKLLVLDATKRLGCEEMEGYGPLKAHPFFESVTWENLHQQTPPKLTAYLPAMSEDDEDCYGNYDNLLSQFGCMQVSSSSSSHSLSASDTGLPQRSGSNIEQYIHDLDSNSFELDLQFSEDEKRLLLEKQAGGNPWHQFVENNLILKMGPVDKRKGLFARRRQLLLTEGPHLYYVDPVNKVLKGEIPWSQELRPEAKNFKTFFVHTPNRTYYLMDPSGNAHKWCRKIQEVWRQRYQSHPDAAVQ
How it is done: as §1

The target in a further test is T12, ROCK 2 (Homo sapiens, UniProt O75116).
T12 construct: lines 1-140) and Reaction Biology
The procedure: as §1

For the next test, the target named is T13, TIE2 (Homo sapiens, UniProt Q02763).
T13 construct: lines 1-140) and Reaction Biology
The procedure: as §1

The next test has as its target T14, TTBK2 (Homo sapiens, UniProt Q6IQ55).
T14 construct: lines 1-140) and Reaction Biology
How it is done:
as §1

A further test deals with T15, p38b MAPK (Homo sapiens, UniProt Q15759).
T15 construct: lines 1-140) and Reaction Biology
The procedure:
as §1

The structures appear in SMILES notation.

T14 sequence (Q6IQ55 whole entry): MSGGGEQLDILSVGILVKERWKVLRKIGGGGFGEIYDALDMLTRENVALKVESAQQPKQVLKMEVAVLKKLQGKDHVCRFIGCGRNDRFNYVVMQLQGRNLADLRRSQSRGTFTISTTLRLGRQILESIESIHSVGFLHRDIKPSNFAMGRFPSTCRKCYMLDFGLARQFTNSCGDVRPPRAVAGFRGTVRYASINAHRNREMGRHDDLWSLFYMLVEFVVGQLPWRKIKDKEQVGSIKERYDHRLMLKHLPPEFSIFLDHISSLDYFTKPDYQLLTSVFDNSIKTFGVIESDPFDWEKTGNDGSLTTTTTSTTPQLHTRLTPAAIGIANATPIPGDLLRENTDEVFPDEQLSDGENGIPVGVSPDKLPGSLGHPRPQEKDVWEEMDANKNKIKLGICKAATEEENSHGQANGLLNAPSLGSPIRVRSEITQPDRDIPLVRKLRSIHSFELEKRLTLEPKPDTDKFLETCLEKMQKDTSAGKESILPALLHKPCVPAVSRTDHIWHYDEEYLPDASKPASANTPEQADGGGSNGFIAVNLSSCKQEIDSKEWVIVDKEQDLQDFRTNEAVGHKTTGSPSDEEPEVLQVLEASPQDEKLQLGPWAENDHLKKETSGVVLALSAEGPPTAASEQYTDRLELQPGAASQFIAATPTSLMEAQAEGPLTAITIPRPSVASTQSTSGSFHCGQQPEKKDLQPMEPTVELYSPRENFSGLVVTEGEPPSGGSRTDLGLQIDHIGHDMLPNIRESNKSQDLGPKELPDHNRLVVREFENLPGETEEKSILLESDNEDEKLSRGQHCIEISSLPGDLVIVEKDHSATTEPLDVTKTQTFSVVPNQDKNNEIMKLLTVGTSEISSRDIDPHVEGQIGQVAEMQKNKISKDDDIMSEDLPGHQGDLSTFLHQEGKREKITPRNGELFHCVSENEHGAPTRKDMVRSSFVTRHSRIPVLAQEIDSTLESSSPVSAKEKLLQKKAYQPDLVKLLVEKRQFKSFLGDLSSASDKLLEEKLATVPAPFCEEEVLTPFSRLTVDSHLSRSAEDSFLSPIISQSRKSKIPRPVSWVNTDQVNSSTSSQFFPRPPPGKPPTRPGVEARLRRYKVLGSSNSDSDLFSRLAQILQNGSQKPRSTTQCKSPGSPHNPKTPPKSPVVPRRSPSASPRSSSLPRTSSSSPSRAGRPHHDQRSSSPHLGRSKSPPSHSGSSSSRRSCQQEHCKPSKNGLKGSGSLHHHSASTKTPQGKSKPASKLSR
T7 sequence (Q14680 whole entry): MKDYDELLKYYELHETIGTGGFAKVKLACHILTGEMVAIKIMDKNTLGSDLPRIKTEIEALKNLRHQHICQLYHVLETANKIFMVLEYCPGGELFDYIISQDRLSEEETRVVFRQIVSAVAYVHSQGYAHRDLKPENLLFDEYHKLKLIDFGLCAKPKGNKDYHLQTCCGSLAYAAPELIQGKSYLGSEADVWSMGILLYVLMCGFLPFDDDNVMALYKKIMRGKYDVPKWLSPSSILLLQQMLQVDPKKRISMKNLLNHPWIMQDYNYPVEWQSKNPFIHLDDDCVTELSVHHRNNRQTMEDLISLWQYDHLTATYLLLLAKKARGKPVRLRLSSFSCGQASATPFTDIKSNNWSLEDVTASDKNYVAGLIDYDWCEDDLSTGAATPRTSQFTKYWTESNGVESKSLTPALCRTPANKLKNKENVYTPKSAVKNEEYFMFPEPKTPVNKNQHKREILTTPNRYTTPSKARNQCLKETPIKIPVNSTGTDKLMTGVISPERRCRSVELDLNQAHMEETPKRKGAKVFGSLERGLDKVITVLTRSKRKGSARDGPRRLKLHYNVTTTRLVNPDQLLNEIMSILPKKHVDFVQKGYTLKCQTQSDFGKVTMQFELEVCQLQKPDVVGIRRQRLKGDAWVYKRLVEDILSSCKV
T8 sequence (P36507 whole entry): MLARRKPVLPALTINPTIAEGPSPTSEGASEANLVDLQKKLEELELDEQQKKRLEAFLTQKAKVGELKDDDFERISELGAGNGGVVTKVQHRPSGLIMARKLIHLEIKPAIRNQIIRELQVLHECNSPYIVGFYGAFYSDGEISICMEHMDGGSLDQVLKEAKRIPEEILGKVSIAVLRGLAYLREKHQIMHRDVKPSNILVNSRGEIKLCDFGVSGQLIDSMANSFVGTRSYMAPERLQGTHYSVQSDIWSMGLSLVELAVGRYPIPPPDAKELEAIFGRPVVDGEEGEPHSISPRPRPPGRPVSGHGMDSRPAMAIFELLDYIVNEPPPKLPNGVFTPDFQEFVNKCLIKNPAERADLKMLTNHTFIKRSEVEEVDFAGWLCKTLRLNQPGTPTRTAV
T13 sequence (Q02763 23-1124): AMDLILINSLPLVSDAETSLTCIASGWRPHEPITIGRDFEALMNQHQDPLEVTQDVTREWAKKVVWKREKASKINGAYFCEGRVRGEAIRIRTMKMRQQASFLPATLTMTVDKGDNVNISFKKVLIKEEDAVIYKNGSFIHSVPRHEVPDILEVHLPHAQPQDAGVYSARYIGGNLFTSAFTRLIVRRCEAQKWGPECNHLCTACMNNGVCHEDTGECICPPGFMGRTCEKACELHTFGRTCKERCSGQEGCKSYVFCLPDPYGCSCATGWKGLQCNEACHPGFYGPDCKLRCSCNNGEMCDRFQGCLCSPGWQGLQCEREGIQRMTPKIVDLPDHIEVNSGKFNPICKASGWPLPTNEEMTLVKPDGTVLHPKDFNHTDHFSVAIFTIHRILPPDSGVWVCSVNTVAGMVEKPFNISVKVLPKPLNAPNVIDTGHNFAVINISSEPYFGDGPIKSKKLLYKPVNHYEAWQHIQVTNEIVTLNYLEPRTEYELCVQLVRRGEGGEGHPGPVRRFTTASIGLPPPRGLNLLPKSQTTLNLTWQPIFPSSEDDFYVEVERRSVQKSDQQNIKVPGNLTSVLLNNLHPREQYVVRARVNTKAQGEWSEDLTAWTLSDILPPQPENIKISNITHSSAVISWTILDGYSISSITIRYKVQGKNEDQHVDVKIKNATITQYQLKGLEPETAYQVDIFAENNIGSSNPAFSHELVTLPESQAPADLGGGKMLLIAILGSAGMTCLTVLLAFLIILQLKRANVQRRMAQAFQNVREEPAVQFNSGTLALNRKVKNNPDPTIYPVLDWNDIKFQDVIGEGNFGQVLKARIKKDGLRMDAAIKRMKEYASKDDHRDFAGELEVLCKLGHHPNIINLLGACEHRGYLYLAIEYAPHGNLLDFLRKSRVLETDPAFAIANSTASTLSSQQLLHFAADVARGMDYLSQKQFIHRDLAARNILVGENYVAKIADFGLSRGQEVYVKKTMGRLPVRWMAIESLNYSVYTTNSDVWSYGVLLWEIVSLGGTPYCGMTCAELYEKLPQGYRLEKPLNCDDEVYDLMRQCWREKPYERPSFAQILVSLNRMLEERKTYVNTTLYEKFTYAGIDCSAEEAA
T5 sequence (P14616 27-1297): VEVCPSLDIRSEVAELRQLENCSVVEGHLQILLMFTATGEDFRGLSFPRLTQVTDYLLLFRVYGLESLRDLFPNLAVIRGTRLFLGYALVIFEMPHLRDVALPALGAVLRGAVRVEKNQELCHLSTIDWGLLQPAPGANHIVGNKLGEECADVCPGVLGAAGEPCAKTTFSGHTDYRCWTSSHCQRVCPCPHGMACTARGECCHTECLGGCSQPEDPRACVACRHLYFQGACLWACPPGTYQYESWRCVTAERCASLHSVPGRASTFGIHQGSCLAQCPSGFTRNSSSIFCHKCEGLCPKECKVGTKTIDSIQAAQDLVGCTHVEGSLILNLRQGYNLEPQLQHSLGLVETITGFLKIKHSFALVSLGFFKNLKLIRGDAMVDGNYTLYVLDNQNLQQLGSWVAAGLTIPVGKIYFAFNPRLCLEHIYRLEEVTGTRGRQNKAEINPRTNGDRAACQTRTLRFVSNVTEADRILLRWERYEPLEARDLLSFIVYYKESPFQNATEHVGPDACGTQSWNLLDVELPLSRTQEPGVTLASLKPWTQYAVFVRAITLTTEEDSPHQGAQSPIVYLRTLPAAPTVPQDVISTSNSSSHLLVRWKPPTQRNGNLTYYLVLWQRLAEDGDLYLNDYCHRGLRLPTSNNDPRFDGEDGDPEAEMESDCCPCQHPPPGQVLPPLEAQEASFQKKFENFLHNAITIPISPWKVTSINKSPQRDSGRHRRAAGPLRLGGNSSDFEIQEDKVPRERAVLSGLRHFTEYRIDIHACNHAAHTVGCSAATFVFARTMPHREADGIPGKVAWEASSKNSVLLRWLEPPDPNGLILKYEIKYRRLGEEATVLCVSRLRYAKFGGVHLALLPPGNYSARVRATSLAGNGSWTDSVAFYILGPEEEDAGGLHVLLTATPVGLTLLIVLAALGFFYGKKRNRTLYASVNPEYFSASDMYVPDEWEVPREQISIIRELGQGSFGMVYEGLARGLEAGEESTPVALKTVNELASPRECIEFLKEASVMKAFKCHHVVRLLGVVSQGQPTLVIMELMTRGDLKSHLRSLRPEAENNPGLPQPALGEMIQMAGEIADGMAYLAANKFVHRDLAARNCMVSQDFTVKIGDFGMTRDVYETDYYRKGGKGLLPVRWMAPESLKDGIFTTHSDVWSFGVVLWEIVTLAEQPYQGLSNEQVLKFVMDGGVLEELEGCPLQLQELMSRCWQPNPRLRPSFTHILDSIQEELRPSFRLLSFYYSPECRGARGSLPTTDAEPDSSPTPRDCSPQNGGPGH
T10 sequence (Q9HC98 whole entry): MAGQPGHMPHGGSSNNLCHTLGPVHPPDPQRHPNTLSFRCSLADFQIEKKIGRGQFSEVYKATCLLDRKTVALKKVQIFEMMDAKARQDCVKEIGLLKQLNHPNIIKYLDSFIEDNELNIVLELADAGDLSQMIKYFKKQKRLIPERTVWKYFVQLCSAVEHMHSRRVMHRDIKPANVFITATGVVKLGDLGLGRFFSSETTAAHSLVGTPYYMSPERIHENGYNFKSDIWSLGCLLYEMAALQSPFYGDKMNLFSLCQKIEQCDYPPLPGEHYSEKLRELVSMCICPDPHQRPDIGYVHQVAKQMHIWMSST

For the molecule `O=C1Nc2ccc(I)cc2/C1=C/c1cc(Br)c(O)c(Br)c1` [GW5074], the remaining activity at 1 µM was found to be 104% on CDK9-Cyclin T1; 72% on CK2; 94% on EPH-B2; 87% on ERK1; 61% on IRR; 70% at JNK1. Besides, the remaining activity at 1 µM stood at 48% at MELK; 79% at MKK2; 81% on MKK6; 82% on NEK6; 22% at PDK1; 56% at ROCK 2. In addition, the values for the remaining activity at 1 µM at TIE2, at TTBK2 and on p38b MAPK were 98%, 83% and 77%, respectively.
Regarding `Nc1ncc(C(=O)NC2CN(C(=O)C3CC3)C2)c2ccc(-c3cccc(F)c3)nc12` [GNE-495], the residual activity (usually the signal under treatment as a percentage of the control signal) on CDK9-Cyclin T1 (1 μM) was determined as 78%; on CK2 (1 μM), 93%; on EPH-B2 (1 μM) it was 102%; at ERK1 (1 μM), 143%; at IRR (1 μM) it was 83%; on JNK1 (1 μM), 63%. For the same molecule, the residual activity at MELK (1 μM) was found to be 82%; at MKK2 (1 μM), 75%; at MKK6 (1 μM) it was 97%; at NEK6 (1 μM), 111%; on PDK1 (1 μM), 90%; on ROCK 2 (1 μM), 82%. The values for the residual activity at TIE2 (1 μM), at TTBK2 (1 μM) and on p38b MAPK (1 μM) were 86%, 116% and 100%, respectively.
With `Oc1ncnc2c1c(-c1ccccc1)cn2-c1ccccc1` [F1386-0303, 5,7-diphenyl-7H-pyrrolo[2,3-d]pyrimidin-4-ol], the remaining activity at 1 µM came out at 88% at CDK9-Cyclin T1; 77% on CK2; 78% on EPH-B2; 124% on ERK1; 95% on IRR; 99% on JNK1. The remaining activity at 1 µM at MELK was found to be 90%; at MKK2, 102%; on MKK6, 105%; at NEK6, 128%; on PDK1, 103%; on ROCK 2 it was 132%. Besides, the remaining activity at 1 µM at TIE2 is 114%; at TTBK2 it was 99%; on p38b MAPK, 96%.
As to `COCCOc1ccc(-c2cn(-c3ccccc3)c3nc[nH]c(=O)c23)cc1` [DMX-5804, 5-[4-(2-methoxy-ethoxy)-phenyl]-7-phenyl-3,7-dihydro-pyrrolo[2,3-d]pyrimidin-4-one], the remaining activity at 1 µM at CDK9-Cyclin T1 was 113%; at CK2, 104%; at EPH-B2, 102%; at ERK1, 107%; at IRR, 96%; on JNK1, 122%. Further, the remaining activity at 1 µM on MELK was 83%; at MKK2, 98%; on MKK6, 112%; on NEK6, 101%; at PDK1 it was 89%; at ROCK 2, 104%. Moreover, the values for the remaining activity at 1 µM on TIE2, at TTBK2 and on p38b MAPK were 101%, 108% and 93%, respectively.
In the case of `O=C1Cc2c([nH]c3ccc(Br)cc23)-c2ccccc2N1` [Kenpaullone], the remaining activity at 1 µM stood at 22% on CDK9-Cyclin T1; 90% on CK2; 99% at EPH-B2; 78% on ERK1; 89% on IRR; 100% at JNK1. Further, the remaining activity at 1 µM at MELK stood at 38%; at MKK2 it was 91%; on MKK6, 102%; on NEK6, 99%; on PDK1 it was 64%; on ROCK 2, 62%. In addition, the remaining activity at 1 µM is 98% on TIE2, 95% on TTBK2 and 95% at p38b MAPK.
